Results published in ChEMBL document CHEMBL1268953, “Discovery of novel 2-aryl-4-benzoyl-imidazoles targeting the colchicines binding site in tubulin as potential anticancer agents” (J Med Chem, 2010).

Tests used:
[1] = system: PPC-1; test: Cytotoxicity against human PPC1 cells after 48 hrs by sulforhodamine B assay; type: functional, cell-based
[2] = Cytotoxicity against mouse B16-F1 cells after 48 hrs by sulforhodamine B assay; type: functional, cell-based
[3] = system: LNCaP; test: Cytotoxicity against human LNCAP cells after 48 hrs by sulforhodamine B assay; type: functional, cell-based
[4] = system: A-375; test: Cytotoxicity against human A375 cells after 48 hrs by sulforhodamine B assay; type: functional, cell-based
[5] = system: PC-3; test: cells; conditions: Homo sapiens, PC-3, 48 h
Description: Cytotoxicity against human PC3 cells after 48 hrs by sulforhodamine B assay

[6] = Cytotoxicity against human WM164 cells after 48 hrs by sulforhodamine B assay; type: functional, cell-based
[7] = system: DU-145; test: cells; conditions: Homo sapiens, DU-145, 48 h
Description: Cytotoxicity against human DU145 cells after 48 hrs by sulforhodamine B assay

Row | SMILES | IC50 ([1]; Homo sapiens, PPC-1, 48 h) | IC50 ([2]; Mus musculus, B16-F1, 48 h) | IC50 [3] | IC50 ([4]; Homo sapiens, A-375, 48 h) | IC50 [5] | IC50 ([6]; Homo sapiens, WM164, 48 h) | IC50 [7] | IC50 ([1]; ppc-1) | IC50 ([2]; b16-f1) | IC50 ([4]; a-375) | IC50 ([6]; wm164)
1 | COc1cc(C(=O)n2ccnc2-c2ccccc2)cc(OC)c1OC | > 10000 nM | > 10000 nM | > 10000 nM | > 10000 nM | > 10000 nM | > 10000 nM | > 10000 nM | – | – | – | –
2 | O=C(c1ccc(F)cc1)c1c[nH]c(-c2ccc(OCc3ccccc3)cc2)n1 | 43 nM | 117 nM | 44 nM | 93 nM | 79 nM | 90 nM | 60 nM | – | – | – | –
3 | CN(C)c1ccc(-c2nc(C(=O)c3ccc(F)cc3)c[nH]2)cc1 | 45 nM | – | 57 nM | – | 81 nM | 62 nM | – | – | – | – | –
4 | COc1cc(C(=O)c2c[nH]c(-c3ccc(Cl)cc3)n2)cc(OC)c1OC | 26 nM | 168 nM | 24 nM | 43 nM | 35 nM | – | 36 nM | – | – | – | –
5 | COc1ccc(-c2ncc(C(=O)c3ccc(F)cc3)n2S(=O)(=O)c2ccccc2)cc1OC | 1440 nM | 2000 nM | 1920 nM | 960 nM | 10000 nM | 1400 nM | 3310 nM | – | – | – | –
6 | COc1cc(-c2nc(C(=O)c3ccc(F)cc3)c[nH]2)cc(OC)c1OC | > 10000 nM | > 10000 nM | > 10000 nM | > 10000 nM | > 10000 nM | > 10000 nM | > 10000 nM | – | – | – | –
7 | O=C(c1ccc(F)cc1)c1c[nH]c(-c2ccccc2)n1 | 570 nM | 930 nM | 610 nM | – | 2100 nM | – | 850 nM | – | – | – | –
8 | Cc1ccc(-c2ncc(C(=O)c3ccc(F)cc3)n2S(=O)(=O)c2ccccc2)cc1 | 57 nM | 287 nM | 55 nM | – | 80 nM | 107 nM | 80 nM | – | – | – | –
9 | COc1ccc(-c2nc(C(=O)c3cc(OC)c(OC)c(OC)c3)c[nH]2)cc1 | 34 nM | 108 nM | 31 nM | – | 45 nM | – | 48 nM | – | – | – | –
10 | O=S(=O)(c1ccccc1)n1ccnc1-c1ccccc1 | > 10000 nM | > 10000 nM | > 10000 nM | > 10000 nM | > 10000 nM | > 10000 nM | > 10000 nM | – | – | – | –
11 | COc1ccc(C(=O)c2c[nH]c(-c3ccccc3)n2)cc1OC | > 10000 nM | > 10000 nM | > 10000 nM | > 10000 nM | > 10000 nM | > 10000 nM | > 10000 nM | – | – | – | –
12 | COc1ccc(C(=O)n2ccnc2-c2ccccc2)cc1 | > 10000 nM | > 10000 nM | > 10000 nM | > 10000 nM | > 10000 nM | > 10000 nM | > 10000 nM | – | – | – | –
13 | COc1cc(-c2ncc(C(=O)c3ccc(F)cc3)n2S(=O)(=O)c2ccccc2)cc(OC)c1OC | > 10000 nM | > 10000 nM | > 10000 nM | 3840 nM | > 10000 nM | > 10000 nM | > 10000 nM | – | – | – | –
14 | COc1ccc(-c2nc(C(=O)c3ccc(F)cc3)c[nH]2)cc1OC | 2170 nM | 4210 nM | 2530 nM | – | 10000 nM | 1400 nM | 10000 nM | – | – | – | –
15 | COc1cc(C(=O)c2c[nH]c(-c3ccc(F)cc3)n2)cc(OC)c1OC | 81 nM | 320 nM | 98 nM | 205 nM | 169 nM | 73 nM | 132 nM | – | – | – | –
16 | COc1ccc(C(=O)c2c[nH]c(-c3ccccc3)n2)cc1 | > 10000 nM | > 10000 nM | > 10000 nM | > 10000 nM | > 10000 nM | > 10000 nM | > 10000 nM | – | – | – | –

Row | SMILES | IC50 ([1]; Homo sapiens, PPC-1, 48 h) | IC50 ([2]; Mus musculus, B16-F1, 48 h) | IC50 [3] | IC50 ([4]; Homo sapiens, A-375, 48 h) | IC50 [5] | IC50 ([6]; Homo sapiens, WM164, 48 h) | IC50 [7] | IC50 ([1]; ppc-1) | IC50 ([2]; b16-f1) | IC50 ([4]; a-375) | IC50 ([6]; wm164)
17 | COc1cc(C(=O)c2cnc(-c3cc(OC)c(OC)c(OC)c3)n2S(=O)(=O)c2ccccc2)cc(OC)c1OC | > 10000 nM | > 10000 nM | > 10000 nM | > 10000 nM | > 10000 nM | > 10000 nM | > 10000 nM | – | – | – | –
18 | COc1cccc(C(=O)c2cnc(-c3ccccc3)n2S(=O)(=O)c2ccccc2)c1 | > 10000 nM | > 10000 nM | > 10000 nM | > 10000 nM | > 10000 nM | > 10000 nM | > 10000 nM | – | – | – | –
19 | O=C(c1ccc(F)cc1)c1cnc(-c2ccc(OCc3ccccc3)cc2)n1S(=O)(=O)c1ccccc1 | 38 nM | 110 nM | 35 nM | 64 nM | 75 nM | 48 nM | 58 nM | – | – | – | –
20 | O=C(c1ccc(F)cc1)c1c[nH]c(-c2ccc(O)cc2)n1 | > 10000 nM | > 10000 nM | 10000 nM | – | > 10000 nM | > 10000 nM | > 10000 nM | – | – | – | –
21 | O=C(c1ccc(F)cc1)c1cnc(-c2ccc(Cl)cc2)n1S(=O)(=O)c1ccccc1 | 54 nM | 107 nM | 48 nM | 88 nM | 76 nM | 70 nM | 64 nM | – | – | – | –
22 | Cc1ccc(C(=O)c2c[nH]c(-c3ccccc3)n2)cc1 | > 10000 nM | > 10000 nM | > 10000 nM | > 10000 nM | > 10000 nM | > 10000 nM | > 10000 nM | – | – | – | –
23 | COc1ccc(-c2ncc(C(=O)c3cc(OC)c(OC)c(OC)c3)n2S(=O)(=O)c2ccccc2)cc1OC | – | 970 nM | 114 nM | 192 nM | 197 nM | 139 nM | 144 nM | – | – | – | –
24 | COc1cc(C(=O)c2cnc(-c3ccc(N(C)C)cc3)n2S(=O)(=O)c2ccccc2)cc(OC)c1OC | – | 1200 nM | 62 nM | 162 nM | 93 nM | 308 nM | 99 nM | – | – | – | –
25 | O=C(c1cccc(F)c1)c1cnc(-c2ccccc2)n1S(=O)(=O)c1ccccc1 | > 10000 nM | > 10000 nM | > 10000 nM | > 10000 nM | > 10000 nM | > 10000 nM | > 10000 nM | – | – | – | –
26 | COc1cc(C(=O)c2c[nH]c(-c3ccc(O)cc3)n2)cc(OC)c1OC | – | 2400 nM | – | 1600 nM | – | 1800 nM | – | – | – | – | –
27 | COc1cc(C(=O)c2c[nH]c(-c3ccc(C)cc3)n2)cc(OC)c1OC | – | 46 nM | – | – | – | 8 nM | – | 11 nM | – | – | –
28 | COc1cc(C(=O)c2c[nH]c(-c3ccc(OCc4ccccc4)cc3)n2)cc(OC)c1OC | 2840 nM | – | 2790 nM | 5200 nM | 10000 nM | 5500 nM | 10000 nM | – | – | – | –
29 | COc1cc(C(=O)c2c[nH]c(-c3ccc(C(F)(F)F)cc3)n2)cc(OC)c1OC | 110 nM | 468 nM | 134 nM | 163 nM | 127 nM | – | 174 nM | – | – | – | –
30 | Cc1ccc(-c2nc(C(=O)c3ccc(F)cc3)c[nH]2)cc1 | – | – | – | – | – | – | – | – | 297 nM | 108 nM | 112 nM
31 | COc1ccc(-c2nc(C(=O)c3cc(OC)c(OC)c(OC)c3)c[nH]2)cc1OC | – | 1400 nM | – | – | – | 191 nM | – | – | – | – | –
32 | COc1cc(OC)cc(C(=O)c2c[nH]c(-c3ccccc3)n2)c1 | 2100 nM | 5400 nM | 3600 nM | 2800 nM | 3200 nM | – | 2600 nM | – | – | – | –
